Assays:
PARP7 = target: T1, PARP7 (Homo sapiens, UniProt Q7Z3E1); assay: biochemical;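 note: MSD light signal quantifying PARP7 captured by a plate-immobilized probe, read after 1.5 h equilibration plus 1.5 h with SULFO-TAG anti-GST antibody at room temperature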
T1 sequence (Q7Z3E1 1-657): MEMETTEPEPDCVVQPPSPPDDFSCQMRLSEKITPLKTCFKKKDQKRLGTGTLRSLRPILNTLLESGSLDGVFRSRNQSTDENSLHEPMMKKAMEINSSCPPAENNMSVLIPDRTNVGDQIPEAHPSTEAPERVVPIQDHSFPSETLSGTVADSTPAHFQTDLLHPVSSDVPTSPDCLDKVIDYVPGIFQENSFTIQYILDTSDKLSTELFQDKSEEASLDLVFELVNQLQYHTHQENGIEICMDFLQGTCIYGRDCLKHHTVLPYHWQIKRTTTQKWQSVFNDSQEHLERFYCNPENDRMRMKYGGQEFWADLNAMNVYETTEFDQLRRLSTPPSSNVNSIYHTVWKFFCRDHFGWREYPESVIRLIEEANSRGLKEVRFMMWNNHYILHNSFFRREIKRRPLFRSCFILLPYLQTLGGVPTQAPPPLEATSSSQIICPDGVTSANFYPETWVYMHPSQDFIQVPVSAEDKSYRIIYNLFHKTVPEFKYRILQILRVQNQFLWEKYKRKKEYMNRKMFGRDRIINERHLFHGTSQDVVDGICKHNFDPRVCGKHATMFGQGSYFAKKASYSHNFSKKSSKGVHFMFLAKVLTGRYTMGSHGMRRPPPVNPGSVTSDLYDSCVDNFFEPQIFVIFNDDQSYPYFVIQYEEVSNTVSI

[1] = test system: STAT1 (phosphorylated at Tyr701) in NCI-H1373 cells; assay: Phospho-STAT1 (Tyr701) LANCE Ultra TR-FRET Detection Assay; type: cell-based; settings: Homo sapiens, 48 hours, induction of pSTAT1, normalized to 10 uM positive control and DMSO, 4-parameter fit, read-out: NH1373 pSTAT1 EC50
Method in brief: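 Endogenous STAT1 Tyr701 phosphorylation induced by compound was measured after seeding 30,000 cells/well onto compound-spotted plates and incubating 48 h at 37 °C, 5% CO2. Lysates were incubated with a sandwich antibody pair overnight at room temperature, and TR-FRET emission was read at 665 and 620 nm.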

SMILES | IC50 (PARP7) [nM] | EC50 [1] [nM]
O=C(CCCN(CC(F)F)c1cc(C(F)(F)F)c(=O)[nH]n1)N1CCN(c2ncc(C(F)(F)F)cn2)CC1 [Example 56, 3-[2,2-difluoroethyl-[4-oxo-4-[4-[5-(trifluoromethyl)pyrimidin-2-yl]piperazin-1-yl]butyl]amino]-5-(trifluoromethyl)-1H-pyridazin-6-one] | 0.877 | 452
O=C([C@@H]1Cc2ccccc2CN1c1cc(C(F)(F)F)c(=O)[nH]n1)N1CCN(c2ncc(C(F)(F)F)cn2)CC1 [Example 57, 5-(trifluoromethyl)-3-[(3S)-3-[4-[5-(trifluoromethyl)pyrimidin-2-yl]piperazine-1-carbonyl]-3,4-dihydro-1H-isoquinolin-2-yl]-1H-pyridazin-6-one] | 4.37 | 1710
O=C([C@@H]1CCc2ccccc2N1c1cc(C(F)(F)F)c(=O)[nH]n1)N1CCN(c2ncc(C(F)(F)F)cn2)CC1 [Example 58, 5-(trifluoromethyl)-3-[(2S)-2-[4-[5-(trifluoromethyl)pyrimidin-2-yl]piperazine-1-carbonyl]-3,4-dihydro-2H-quinolin-1-yl]-1H-pyridazin-6-one] | 4.36 | 2110
O=C([C@@H]1CCC[C@H](Nc2cc(C(F)(F)F)c(=O)[nH]n2)C1)N1CCN(c2ncc(C(F)(F)F)cn2)CC1 [Example 60, 5-(trifluoromethyl)-3-[[(1S,3R)-3-[4-[5-(trifluoromethyl)pyrimidin-2-yl]piperazine-1-carbonyl]cyclohexyl]amino]-1H-pyridazin-6-one] | 1.07 | ≥ 10000
O=C([C@H]1CCC[C@H](Nc2cc(C(F)(F)F)c(=O)[nH]n2)C1)N1CCN(c2ncc(C(F)(F)F)cn2)CC1 [Example 61, 5-(trifluoromethyl)-3-[[(1S,3S)-3-[4-[5-(trifluoromethyl)pyrimidin-2-yl]piperazine-1-carbonyl]cyclohexyl]amino]-1H-pyridazin-6-one] | 1.78 | ≥ 10000
O=C([C@@H]1CC[C@H](Nc2cc(C(F)(F)F)c(=O)[nH]n2)C1)N1CCN(c2ncc(C(F)(F)F)cn2)CC1 [Example 62, 5-(trifluoromethyl)-3-[[(1S,3R)-3-[4-[5-(trifluoromethyl)pyrimidin-2-yl]piperazine-1-carbonyl]cyclopentyl]amino]-1H-pyridazin-6-one] | 1.29 | 2200
O=C(C[C@@H]1CCN(c2cc(C(F)(F)F)c(=O)[nH]n2)C1)N1CCN(c2ncc(C(F)(F)F)cn2)CC1 [Example 67, 3-[(3S)-3-[2-oxo-2-[4-[5-(trifluoromethyl)pyrimidin-2-yl]piperazin-1-yl]ethyl]pyrrolidin-1-yl]-5-(trifluoromethyl)-1H-pyridazin-6-one] | 0.848 | 2270
Cc1cc(CCCCC(=O)N2CCN(c3ncc(C(F)(F)F)cn3)CC2)n[nH]c1=O [Example 68, 5-methyl-3-[5-oxo-5-[4-[5-(trifluoromethyl)pyrimidin-2-yl]piperazin-1-yl]pentyl]-1H-pyridazin-6-one] | 5.66 | 1320
O=C(CCCCc1n[nH]c(=O)c2c1CCCC2)N1CCN(c2ncc(C(F)(F)F)cn2)CC1 [Example 69, 4-[5-oxo-5-[4-[5-(trifluoromethyl)pyrimidin-2-yl]piperazin-1-yl]pentyl]-5,6,7,8-tetrahydro-2H-phthalazin-1-one] | 0.755 | 160
O=C(N1CCN(c2ncc(C(F)(F)F)cn2)CC1)C1(CCNc2cc(C(F)(F)F)c(=O)[nH]n2)CC1 [Example 70, 5-(trifluoromethyl)-3-[2-[1-[4-[5-(trifluoromethyl)pyrimidin-2-yl]piperazine-1-carbonyl]cyclopropyl]ethylamino]-1H-pyridazin-6-one] | 0.372 | 319
CC(C)(CCNc1cc(C(F)(F)F)c(=O)[nH]n1)C(=O)N1CCN(c2ncc(C(F)(F)F)cn2)CC1 [Example 71, 3-[[3,3-dimethyl-4-oxo-4-[4-[5-(trifluoromethyl)pyrimidin-2-yl]piperazin-1-yl]butyl]amino]-5-(trifluoromethyl)-1H-pyridazin-6-one] | 1.33 | 2560
O=C(N1CCN(c2ncc(C(F)(F)F)cn2)CC1)C(F)(F)CCNc1cc(C(F)(F)F)c(=O)[nH]n1 [Example 72, 3-[[3,3-difluoro-4-oxo-4-[4-[5-(trifluoromethyl)pyrimidin-2-yl]piperazin-1-yl]butyl]amino]-5-(trifluoromethyl)-1H-pyridazin-6-one] | 0.497 | 206
O=C(CCNCc1cc(C(F)(F)F)c(=O)[nH]n1)N1CCN(c2ncc(C(F)(F)F)cn2)CC1 [Example 73, 6-(((3-oxo-3-(4-(5-(trifluoromethyl)pyrimidin-2-yl)piperazin-1-yl)propyl)amino)methyl)-4-(trifluoromethyl)pyridazin-3(2H)-one] | 1.79 | 2030
O=C([C@@H]1CN(Cc2cc(C(F)(F)F)c(=O)[nH]n2)CCO1)N1CCN(c2ncc(C(F)(F)F)cn2)CC1 [Example 74, 5-(trifluoromethyl)-3-[[(2S)-2-[4-[5-(trifluoromethyl)pyrimidin-2-yl]piperazine-1-carbonyl]morpholin-4-yl]methyl]-1H-pyridazin-6-one] | 2.01 | 1790
O=C([C@H]1CN(Cc2cc(C(F)(F)F)c(=O)[nH]n2)CCO1)N1CCN(c2ncc(C(F)(F)F)cn2)CC1 [Example 75, 5-(trifluoromethyl)-3-[[(2R)-2-[4-[5-(trifluoromethyl)pyrimidin-2-yl]piperazine-1-carbonyl]morpholin-4-yl]methyl]-1H-pyridazin-6-one] | 5.12 | 1350
O=C(CCC[C@@H]1CCc2c1n[nH]c(=O)c2C(F)(F)F)N1CCN(c2ncc(C(F)(F)F)cn2)CC1 [Example 78, (R)-7-(4-oxo-4-(4-(5-(trifluoromethyl)pyrimidin-2-yl)piperazin-1-yl)butyl)-4-(trifluoromethyl)-2,5,6,7-tetrahydro-3H-cyclopenta[c]pyridazin-3-one] | 0.142 | 24.1
O=C(CCC[C@H]1CCc2c1n[nH]c(=O)c2C(F)(F)F)N1CCN(c2ncc(C(F)(F)F)cn2)CC1 [Example 79, (S)-7-(4-oxo-4-(4-(5-(trifluoromethyl)pyrimidin-2-yl)piperazin-1-yl)butyl)-4-(trifluoromethyl)-2,5,6,7-tetrahydro-3H-cyclopenta[c]pyridazin-3-one] | 2.71 | 316
